According to ChEMBL document CHEMBL4680267, “Design, synthesis and biological evaluation of 7-substituted 4-phenyl-6H-imidazo[1,5-a]thieno[3,2-f] [1,4]diazepines as safe anxiolytic agents” (Eur J Med Chem, 2020):

Key:
[1] = Hypnotic activity in mouse assessed as phenobarbital induced sleep induction time at 30 mg/kg, po administered 30 mins prior to phenobarbital challenge and measured for 30 mins (reference value: 4.4 +/- 1.1 min); type: ADME, organism-based; details: in vivo, 1 h, time 60 min
Mus musculus [2] = assay: Anti-amnesic activity in mouse model of scopolamine-induced cognitive deficit assessed as latency time to enter dark compartment in training session at 10 mg/kg, po and mesured for 30 mins by passive avoidance test (reference value: 14.2 +/- 2.2 secs); type: functional; details: 0.5 h
[3] = Hypnotic activity in mouse assessed as phenobarbital induced sleep endurance time at 30 mg/kg, po administered 30 mins prior to phenobarbital challenge and measured for 30 mins (reference value: 27.4 +/- 2.3 min); type: ADME, organism-based; details: in vivo, 1 h, time 60 min
[4] = Effect on locomotor activity in mouse at 30 mg/kg, po measured after 30 mins by hole-board test; type: ADME, organism-based; details: in vivo, 0.5 h
Mus musculus [5] = assay: Anti-amnesic activity in mouse model of scopolamine-induced cognitive deficit assessed as latency time to enter dark compartment in training session at 30 mg/kg, po and measured for 30 mins by passive avoidance test (reference value: 14.2 +/- 2.2 secs); type: functional; details: 0.5 h
[6] = Displacement of [3H]-Flumazenil from Central type benzodiazepine receptor in rat cerebral cortex membrane incubated for 90 mins by liquid scintillation counting method; type: cell membranes
[7] = Effect on explorative activity in mouse assessed as exploration of holes at 30 mg/kg, po measured after 30 mins by hole-board test; type: ADME, organism-based; details: in vivo, 0.5 h
Mus musculus [8] = assay: Anticonvulsive activity in mouse assessed as protection against pentylenetetrazole-induced seizure at 10 mg/kg, po administered 30 mins prior to pentylenetetrazole challenge and measured for 30 mins; type: functional; details: time 60 min, 1 h
Rattus norvegicus = species: Rattus norvegicus; assay: Displacement of [3H]-Flumazenil from Central type benzodiazepine receptor in rat cerebral cortex membrane at 10 uM incubated for 90 mins by liquid scintillation counting method relative to control; type: cell membranes
Mus musculus [9] = assay: Anti-amnesic activity in mouse model of scopolamine-induced cognitive deficit assessed as latency time to enter dark compartment in retension session at 10 mg/kg, po and measured after 24 hrs by passive avoidance test (reference value: 46.2 +/- 8.9 secs); type: functional
[10] = Effect on motor coordination in mouse assessed as number of falls from rotarod at 30 mg/kg, po measured for 30 mins by rotarod test (reference value: 2.2 +/- 0.2); type: ADME, organism-based; details: in vivo, 0.5 h
Mus musculus [11] = assay: Anticonvulsive activity in mouse assessed as protection against pentylenetetrazole-induced seizure at 30 mg/kg, po administered 30 mins prior to pentylenetetrazole challenge and measured for 30 mins; type: functional; details: time 60 min, 1 h
Mus musculus [12] = assay: Anxiolytic activity in mouse assessed as increase in time spent in lighted compartment at 10 mg/kg, po measured after 30 mins by light-dark box test (reference value: 122.3 +/- 8.5 secs); type: functional; details: 0.5 h
Mus musculus [13] = assay: Anxiolytic activity in mouse assessed as increase in time spent in lighted compartment at 30 mg/kg, po measured after 30 mins by light-dark box test (reference value: 122.3 +/- 8.5 secs); type: functional; details: 0.5 h
Mus musculus [14] = assay: Anti-amnesic activity in mouse model of scopolamine-induced cognitive deficit assessed as latency time to enter dark compartment in retension session at 30 mg/kg, po and measured after 24 hrs by passive avoidance test (reference value: 46.2 +/- 8.9 secs); type: functional
[15] = Displacement of [3H]diazepam from Benzodiazepine receptor in rat cerebral cortex membrane; type: cell membranes
[16] = Displacement of [3H]flunitrazepam from Benzodiazepine receptor in Sprague-Dawley rat cerebral cortex membrane preincubated for 10 mins followed by [3H]flunitrazepam addition and measured after 60 mins by liquid scintillation spectroscopy analysis; type: cell membranes
[17] = Hypnotic activity in mouse assessed as phenobarbital induced sleep endurance time at 2 mg/kg, sc administered 30 mins prior to phenobarbital challenge and measured for 30 mins (reference value: 27.4 +/- 2.3 min); type: ADME, organism-based; details: in vivo, 1 h, time 60 min
[18] = Displacement of [3H]flunitrazepam from Benzodiazepine receptor in Sprague-Dawley rat cerebral cortex membrane measured after 30 mins by liquid scintillation spectrometry analysis; type: cell membranes

| Structure (SMILES) | Time [1] [min] | Time (Mus musculus [2]) [s] | Time [3] [min] | Activity [4] | Time (Mus musculus [5]) [s] | IC50 [6] [nM] | Activity [7] | Activity (Mus musculus [8]) [%] | inhibition (Rattus norvegicus) [%] | Time (Mus musculus [9]) [s] | Activity [10] | Activity (Mus musculus [11]) [%] | Time (Mus musculus [12]) [min] | Time (Mus musculus [13]) [s] | Time (Mus musculus [14]) [s] | IC50 [15] [nM] | IC50 [16] [nM] | Time [17] [min] | IC50 [18] [nM] |
| --- | --- | --- | --- | --- | --- | --- | --- | --- | --- | --- | --- | --- | --- | --- | --- | --- | --- | --- | --- |
| CC(C)(C)OC(=O)c1ncn2c1CN=C(c1ccc(F)cc1)c1ccsc1-2 | 4.7 | 12.8 | 27.2 | 26.7 | 16.5 | 10.2 | 17.5 | 20 | > 80 | 67.1 | 2.1 | 40 | 145.6 | 169.4 | 85.9 | – | – | – | – |
| CN1C(=O)CN=C(c2ccccc2)c2cc(Cl)ccc21 [DIAZEPAM] | – | – | – | – | – | 18.5 | – | 100 | – | – | – | – | 165.6 | – | – | – | – | – | – |
| CCOC(=O)c1ncn2c1CN(C)C(=O)c1cc(F)ccc1-2 [FLUMAZENIL] | – | – | – | – | – | – | – | – | – | – | – | – | – | – | – | 2.3 | – | – | – |
| CCOC(=O)c1ncn2c1CN=C(c1cccc(F)c1)c1ccsc1-2 | 5.2 | 14.9 | 24.9 | 27.3 | 17.4 | 8.66 | 15.3 | – | > 80 | 39.2 | 2.5 | 20 | 111.3 | 163.9 | 75.3 | – | – | – | – |
| CC(C)(C)OC(=O)c1ncn2c1CN=C(c1ccccc1)c1ccsc1-2 | 4.4 | 15.4 | 28.8 | 33.4 | 17.2 | 5.19 | 15.9 | – | > 80 | 46.9 | 2.4 | 20 | 113.6 | 151.4 | 70.3 | – | – | – | – |
| CCOC(=O)c1ncn2c1CN=C(c1ccccc1)c1ccsc1-2 | 3.9 | 13.6 | 23.8 | 28.2 | 18.1 | 11.7 | 19.1 | – | > 80 | 54.1 | 1.9 | 10 | 131.3 | 166.2 | 88.6 | – | – | – | – |
| CC(C)(C)OC(=O)c1ncn2c1CN=C(c1cccc(F)c1)c1ccsc1-2 | 3.5 | 18.2 | 25.9 | 29.5 | 15.6 | 9.61 | 17.5 | – | > 80 | 51.4 | 1.9 | 0 | 118.3 | 143.8 | 72.5 | – | – | – | – |
| CCc1cc2c(s1)-n1c(C)nnc1CN=C2c1ccccc1Cl [ETIZOLAM] | – | – | – | – | – | – | – | – | – | – | – | – | – | – | – | – | 4.5 | – | – |
| CC(N)Cc1ccccc1 (configuration not stated) [AMPHETAMINE] | – | – | – | – | – | – | – | – | – | – | – | – | – | – | – | – | – | 22.2 | – |
| Cc1nnc2n1-c1sc(Br)cc1C(c1ccccc1Cl)=NC2 [BROTIZOLAM] | – | – | – | – | – | – | – | – | – | – | – | – | – | – | – | – | – | – | 2.6 |
| CCOC(=O)c1ncn2c1CN=C(c1ccc(F)cc1)c1ccsc1-2 | 5.5 | 13.9 | 29.2 | 34.5 | 14.7 | 16.2 | 15.8 | – | > 80 | 55.8 | 2.2 | 0 | 109.8 | 151.2 | 89.2 | – | – | – | – |
